Source: US7378375B1, “Substituted pyridine herbicides” (Syngenta Crop Protection, Inc., priority 2000, dated 2008)

How the values were obtained:
[1] = tested on: Monocotyledonous and dicotyledonous test plants; test: Post-emergence herbicidal action, greenhouse pot test, sprayed at the 2- to 3-leaf stage, 9-level rating after 2 to 3 weeks; type: in vivo; settings: 250 g/ha, rated after 2 to 3 weeks, 9-level scale
Outline: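 Plants grown in standard soil in pots; test substances sprayed at the 2- to 3-leaf stage at optimum dosage (500 l water/ha) as aqueous suspension or emulsion from formulated concentrates. Plants then kept in the greenhouse under optimum conditions; rated after 2 to 3 weeks on a 9-level scale (1=complete damage, 9=no effect).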

[2] = tested on: Monocotyledonous and dicotyledonous test plants; test: Herbicidal action before emergence of the plants (pre-emergence action), greenhouse pot test, 9-level rating after 4 weeks; type: in vivo; settings: 250 g/ha, rated after 4 weeks, 9-level scale
Outline: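 Compounds applied pre-emergence as a spray (500 l water/ha) of aqueous suspension or emulsion onto soil immediately after sowing mono- and dicot species in pots. Greenhouse-grown; damage rated after 4 weeks on a 9-level scale (1=complete damage, 9=no effect).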

SMILES	Post-emergence action rating, Abutilon [1]	Post-emergence action rating, Amaranth [1]	Post-emergence action rating, Chenop. [1]	Post-emergence action rating, Digitaria [1]	Post-emergence action rating, Echino. [1]	Post-emergence action rating, Ipopur. [1]	Post-emergence action rating, Panicum [1]	Post-emergence action rating, Xanth. [1]	Pre-emergence action rating, Abutilon [2]	Pre-emergence action rating, Amaranthus [2]	Pre-emergence action rating, Chenop. [2]	Pre-emergence action rating, Digitaria [2]	Pre-emergence action rating, Echino. [2]	Pre-emergence action rating, Panicum [2]
COCCOCCOCc1nc(C(F)(F)F)ccc1C(=O)C1=C(O)C2CCC(C2)C1=O (stereo not shown) [A835-B52]	2	2	1	1	2	2	1	3	2	1	2	2	1	1
C#CCCOCc1nc(C(F)(F)F)ccc1C(=O)C1=C(O)C2CCC(C2)C1=O (stereo not shown) [A836-B52]	2	2	1	2	2	3	2	3	5	2	3	2	1	1
CCN(CC)CC.O=C(C1=C(O)C2CCC(C2)C1=O)c1ccc(C(F)(F)F)nc1COC1CCCO1 (stereo not shown) [A837-B52 (Et3NH+)]	2	2	1	2	2	2	2	2	1	1	1	1	2	1
CCC(OC)OCCOCc1nc(C(F)(F)F)ccc1C(=O)C1=C(O)C2CCC(C2)C1=O (stereo not shown) [A838-B52]	1	2	1	2	3	2	2	2	1	1	1	3	2	1
CC(C)(C)C(=O)OCc1nc(C(F)(F)F)ccc1C(=O)C1=C(O)C2CCC(C2)C1=O (stereo not shown) [A839-B52]	2	2	1	2	2	2	2	2	1	1	1	3	2	1
C=CCOCCOCc1nc(C(F)(F)F)ccc1C(=O)C1=C(O)C2CCC(C2)C1=O (stereo not shown) [A840-B52]	3	2	1	3	4	3	2	3	2	2	1	2	2	1
CCCOCCOCc1nc(C(F)(F)F)ccc1C(=O)C1=C(O)C2CCC(C2)C1=O (stereo not shown) [A841-B52]	3	1	1	4	4	3	2	3	1	1	1	2	1	1
O=C(C1=C(O)C2CCC(C2)C1=O)c1ccc(C(F)(F)F)nc1COCCOC1CCCCO1 (stereo not shown) [A842-B52]	3	2	1	3	5	3	3	3	2	2	1	6	2	1
CCCCCCCC(=O)OCc1nc(C(F)(F)F)ccc1C(=O)C1=C(O)C2CCC(C2)C1=O (stereo not shown) [A843-B52]	3	3	1	3	3	6	2	3	1	1	1	2	2	1
O=C(OCc1nc(C(F)(F)F)ccc1C(=O)C1=C(O)C2CCC(C2)C1=O)c1ccccc1 (stereo not shown) [A844-B52]	3	3	1	3	4	3	2	3	1	1	1	2	2	1
O=C(C1=C(O)C2CCC(C2)C1=O)c1ccc(C(F)(F)F)nc1COCCOCC(F)(F)F (stereo not shown) [A845-B52]	2	2	1	2	2	2	2	2	1	1	1	1	1	1
